Peptide text beside a SMILES is read from it.
Test: Inhibitory activity against Bacterial Tyrosyl tRNA Synthetase

Row | Compound | IC50 [nM]
1 | CCOC(=O)[C@H](NC(=O)[C@@H](N)Cc1ccc(O)cc1)[C@@H]1CC[C@H](O)[C@H](O)[C@H]1O [(R)-[(S)-2-Amino-3-(4-hydroxy-phenyl)-propionylamino]-((1S,2S,3S,4S)-2,3,4-trihydroxy-cyclohexyl)-acetic acid ethyl ester] | > 3000
2 | CCOC(=O)[C@H](NC(=O)[C@@H](N)Cc1ccc(O)cc1)[C@@H]1C=C[C@H](O)[C@H](O)[C@H]1O [(R)-[(S)-2-Amino-3-(4-hydroxy-phenyl)-propionylamino]-((1S,4S,5S,6S)-4,5,6-trihydroxy-cyclohex-2-enyl)-acetic acid ethyl ester] | 124
3 | CCOC(=O)[C@@H](NC(=O)[C@@H](N)Cc1ccc(O)cc1)[C@@H]1CC[C@H](O)[C@H](O)[C@H]1O [(S)-[(S)-2-Amino-3-(4-hydroxy-phenyl)-propionylamino]-((1S,2S,3S,4S)-2,3,4-trihydroxy-cyclohexyl)-acetic acid ethyl ester] | 245
4 | CCOC(=O)[C@@H](NC(=O)[C@@H](N)Cc1ccc(O)cc1)[C@@H]1C=C[C@H](O)[C@H](O)[C@H]1O [(S)-[(S)-2-Amino-3-(4-hydroxy-phenyl)-propionylamino]-((1S,4S,5S,6S)-4,5,6-trihydroxy-cyclohex-2-enyl)-acetic acid ethyl ester] | 3.4
5 | COC(=O)[C@@H](NC(=O)[C@@H](N)Cc1ccc(O)cc1)C1CCCCC1 [(S)-[(S)-2-Amino-3-(4-hydroxy-phenyl)-propionylamino]-cyclohexyl-acetic acid methyl ester] (HELM PEPTIDE1{Y.[O=C([C@@H](N[*:1])C1CCCCC1)[*:2]].[CO[*:1]]}$$$$V2.0) | > 3000
